In a compilation of properties of binary mixtures:
Where “and” joins values, the source holds several entries; their conditions need not be identical. Equal entries are not always repeated.

Assay: xn = mol fraction of the nth substance listed

O=S(=O)([N-]S(=O)(=O)C(F)(F)F)C(F)(F)F.[Li+] + COCCOCCOCCOCCOC
electrical conductivity (298 K, 100 kPa, x1 = 0.143): 0.255 S/m | electrical conductivity (303 K, 100 kPa, x1 = 0.143): 0.29 S/m | electrical conductivity (308 K, 100 kPa, x1 = 0.143): 0.325 S/m | electrical conductivity (313 K, 100 kPa, x1 = 0.143): 0.362 S/m | electrical conductivity (323 K, 100 kPa, x1 = 0.143): 0.465 S/m

OCC(F)(F)F + COP(=O)([O-])OC.Cn1cc[n+](C)c1
viscosity (298.15 K, 101 kPa, x2 = 0.1815): 6.5 mPa·s | viscosity (313.15 K, 101 kPa, x2 = 0.1815): 4.6 mPa·s | viscosity (313.15 K, 101 kPa, x2 = 0.4904): 24.5 mPa·s | viscosity (313.15 K, 101 kPa, x2 = 0.803): 70.5 mPa·s | viscosity (333.15 K, 101 kPa, x2 = 0.1815): 3.1 mPa·s | viscosity (333.15 K, 101 kPa, x2 = 0.4904): 12.8 mPa·s

O=C(O)CC(O)(CC(=O)O)C(=O)O + C[N+](C)(C)Cc1ccccc1.[Cl-]
electrical conductivity (303.11 K, 101 kPa, x2 = 0.5): 0.0002 S/m | electrical conductivity (308.2 K, 101 kPa, x2 = 0.5): 0.0005 S/m | electrical conductivity (313.21 K, 101 kPa, x2 = 0.5): 0.0011 S/m | viscosity (317.97 K, 101 kPa, x2 = 0.5): 152000 mPa·s | electrical conductivity (318.06 K, 101 kPa, x2 = 0.5): 0.0019 S/m | viscosity (323.1 K, 101 kPa, x2 = 0.5): 89000 mPa·s | electrical conductivity (323.14 K, 101 kPa, x2 = 0.5): 0.0032 S/m | viscosity (332.88 K, 101 kPa, x2 = 0.5): 28100 mPa·s | electrical conductivity (333.12 K, 101 kPa, x2 = 0.5): 0.0095 S/m

CCCCCC[n+]1ccn(C)c1.O=S(=O)([N-]S(=O)(=O)C(F)(F)F)C(F)(F)F + Cc1ccccc1
electrical conductivity (298.15 K, 100 kPa, x1 = 0.0811): 0.3 S/m | electrical conductivity (298.15 K, 100 kPa, x1 = 0.1207): 0.4 S/m | electrical conductivity (298.15 K, 100 kPa, x1 = 0.1708): 0.5 S/m | electrical conductivity (298.15 K, 100 kPa, x1 = 0.236): 0.6 S/m | electrical conductivity (298.15 K, 100 kPa, x1 = 0.3246): 0.6 S/m

CC(C)C[P+](C)(CC(C)C)CC(C)C.Cc1ccc(S(=O)(=O)[O-])cc1 + O
viscosity (293.15 K, 101 kPa, x1 = 0.0066): 1.65 mPa·s | viscosity (293.15 K, 101 kPa, x1 = 0.0152): 2.6 mPa·s | viscosity (293.15 K, 101 kPa, x2 = 0): 1320 mPa·s | viscosity (293.15 K, 101 kPa, x2 = 0.9557): 6.9 mPa·s

CCCCCCCCCC[n+]1ccn(C)c1.O=S(=O)([N-]S(=O)(=O)C(F)(F)F)C(F)(F)F + O
viscosity (293.15 K, 101 kPa, x2 = 0.204): 105 mPa·s | electrical conductivity (295.15 K, 101 kPa, x2 = 0.204): 0.15 S/m

CCCCCCCC[n+]1ccn(C)c1.F[P-](F)(F)(F)(F)F + O
viscosity (298 K, 101 kPa, x2 = 0.113): 506 mPa·s

CCCCCCCC[n+]1ccn(C)c1.O=S(=O)([N-]S(=O)(=O)C(F)(F)C(F)(F)F)C(F)(F)C(F)(F)F + O
viscosity (293.15 K, 101 kPa, x2 = 0.148): 167 mPa·s | electrical conductivity (295.15 K, 101 kPa, x2 = 0.148): 0.13 S/m

CCCCCCCCn1cc[n+](C)c1.O=S(=O)([N-]S(=O)(=O)C(F)(F)F)C(F)(F)F + O
viscosity (293.15 K, 101 kPa, x2 = 0.205): 75 mPa·s | electrical conductivity (295.15 K, 101 kPa, x2 = 0.205): 0.21 S/m

CCCCCC[n+]1ccn(C)c1.F[P-](F)(F)(F)(F)F + O
viscosity (298 K, 101 kPa, x2 = 0.1334): 452 mPa·s

CCCCCC[n+]1ccn(C)c1.O=S(=O)([N-]S(=O)(=O)C(F)(F)F)C(F)(F)F + O
viscosity (293.15 K, 101 kPa, x2 = 0.233): 55 mPa·s

CCCC[n+]1ccn(C)c1.F[B-](F)(F)F + O
electrical conductivity (288.15 K, 100 kPa, x1 = 0.0001): 0.0392 S/m | electrical conductivity (298.15 K, 100 kPa, x1 = 0.0001): 0.0505 S/m and 0.036 S/m | electrical conductivity (318.15 K, 100 kPa, x1 = 0.0001): 0.0942 S/m and 0.0522 S/m

CCCC[n+]1ccn(C)c1.O=S(=O)([N-]S(=O)(=O)C(F)(F)F)C(F)(F)F + O
viscosity (298 K, 101 kPa, x2 = 0.0716): 27 mPa·s

CC[N+](CC)(CC)CCCS(=O)(=O)O.F[B-](F)(F)F + O
electrical conductivity (298 K, 101 kPa, x1 = 0.0002): 0.475 S/m | electrical conductivity (298 K, 101 kPa, x1 = 0.0004): 0.658 S/m | electrical conductivity (298 K, 101 kPa, x1 = 0.001): 0.921 S/m | electrical conductivity (298 K, 101 kPa, x1 = 0.0016): 1.45 S/m | electrical conductivity (298 K, 101 kPa, x1 = 0.004): 2.04 S/m | electrical conductivity (298 K, 101 kPa, x1 = 0.006): 2.14 S/m | electrical conductivity (298 K, 101 kPa, x1 = 0.008): 2.28 S/m | electrical conductivity (298 K, 101 kPa, x1 = 0.01): 2.32 S/m

CC[n+]1ccn(C)c1.CS(=O)(=O)[O-] + O
viscosity (283.15 K, 102.2 kPa, x1 = 0.75): 88.7 mPa·s | viscosity (288.15 K, 102.2 kPa, x1 = 0.75): 69 mPa·s | viscosity (293.15 K, 102.2 kPa, x1 = 0.75): 53.3 mPa·s | viscosity (308.15 K, 102.2 kPa, x1 = 0.75): 28.4 mPa·s | viscosity (318.15 K, 102.2 kPa, x1 = 0.75): 20.6 mPa·s | viscosity (323.15 K, 102.2 kPa, x1 = 0.75): 17.9 mPa·s | viscosity (333.15 K, 102.2 kPa, x1 = 0.75): 14 mPa·s

CC[n+]1ccn(C)c1.O=S(=O)([N-]S(=O)(=O)C(F)(F)F)C(F)(F)F + O
viscosity (297.55 K, 101 kPa, x1 = 0.722): 18.2 mPa·s | viscosity (297.55 K, 101 kPa, x1 = 0.8): 21.9 mPa·s | viscosity (297.55 K, 101 kPa, x1 = 0.941): 28.9 mPa·s | viscosity (297.55 K, 101 kPa, x1 = 1): 36.3 mPa·s

CC[n+]1ccn(C)c1.O=S(=O)([O-])C(F)(F)F + O
electrical conductivity (296.75 K, 101 kPa, x2 = 0.304): 1.12 S/m | electrical conductivity (298.15 K, 101 kPa, x2 = 0.304): 1.23 S/m | electrical conductivity (298.35 K, 101 kPa, x2 = 0.304): 1.22 S/m | electrical conductivity (300.65 K, 101 kPa, x2 = 0.304): 1.32 S/m | electrical conductivity (301.05 K, 101 kPa, x2 = 0.304): 1.33 S/m | electrical conductivity (301.85 K, 101 kPa, x2 = 0.304): 1.37 S/m | electrical conductivity (302.75 K, 101 kPa, x2 = 0.304): 1.44 S/m

CCn1cc[nH+]c1.O=S(=O)([N-]S(=O)(=O)C(F)(F)F)C(F)(F)F + O
viscosity (297.55 K, 101 kPa, x1 = 0.359): 11.2 mPa·s | viscosity (297.55 K, 101 kPa, x1 = 0.667): 24.1 mPa·s | viscosity (297.55 K, 101 kPa, x1 = 0.8): 32.7 mPa·s | viscosity (297.55 K, 101 kPa, x1 = 0.941): 50.8 mPa·s | viscosity (297.55 K, 101 kPa, x1 = 1): 57.1 mPa·s
